Where only a bound is given, the exact number is not on record here.

The target of one experiment is T1, V600E full-length B-Raf (Homo sapiens, UniProt P15056, V600E).
T1 construct: made in house; host or cells: Sf9 insect cells (baculovirus)
Kind of experiment: B-Raf IC50 assay: incorporation of radio labeled phosphate from [γ-33P]ATP into FSBA-modified wild-type MEK. The class given is biochemical. The procedure, abridged: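 Sf9-expressed enzyme (20 nM) preincubated 15 min with 1 µM FSBA-MEK, then reaction started with ATP (4 µM final plus [γ-33P]ATP) in Pipes pH 7.2, 100 mM KCl, 10 mM MgCl2. 60 min at 22 °C; TCA-quenched, filter-captured product counted by scintillation.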

The test system of a further experiment is LOX xenografts. Kind of experiment: Tumor Growth Inhibition (LOX) in nude mice with subcutaneous LOX xenografts. Format: in vivo. To be noted: female nude mice, subcutaneous LOX xenograft, 30 mg/kg PO on days 1, 2, 3 and 4. The method, then: Female nude mice were implanted subcutaneously on the right flank with approximately 3.5×10^6 LOX cells in 100 μL PBS. Five to seven days later, tumors were measured and mice were randomized into groups of six with average tumor volume in each group of approximately 200 mm^3. Examples 30 and 42 were dissolved in 80% PEG400/20% ethanol before dosing, and administered PO at a volume of 5 mL/kg. Dosing was vehicle alone on days 1, 2, 3 and 4; and Examples 30 and 42 at 30 mg/kg on days 1, 2, 3 and 4 Animal weights and tumor volumes were measured using electronic calipers on […]. Tumor volume was calculated using the formula: volume=(width^2×length)/2. Each Example was run in a separate study with its own vehicle comparison.

[1] abbreviates: 4 μM ATP, 60-minute incubation, representative data of multiple tests.

T1 sequence (P15056 whole entry V600E): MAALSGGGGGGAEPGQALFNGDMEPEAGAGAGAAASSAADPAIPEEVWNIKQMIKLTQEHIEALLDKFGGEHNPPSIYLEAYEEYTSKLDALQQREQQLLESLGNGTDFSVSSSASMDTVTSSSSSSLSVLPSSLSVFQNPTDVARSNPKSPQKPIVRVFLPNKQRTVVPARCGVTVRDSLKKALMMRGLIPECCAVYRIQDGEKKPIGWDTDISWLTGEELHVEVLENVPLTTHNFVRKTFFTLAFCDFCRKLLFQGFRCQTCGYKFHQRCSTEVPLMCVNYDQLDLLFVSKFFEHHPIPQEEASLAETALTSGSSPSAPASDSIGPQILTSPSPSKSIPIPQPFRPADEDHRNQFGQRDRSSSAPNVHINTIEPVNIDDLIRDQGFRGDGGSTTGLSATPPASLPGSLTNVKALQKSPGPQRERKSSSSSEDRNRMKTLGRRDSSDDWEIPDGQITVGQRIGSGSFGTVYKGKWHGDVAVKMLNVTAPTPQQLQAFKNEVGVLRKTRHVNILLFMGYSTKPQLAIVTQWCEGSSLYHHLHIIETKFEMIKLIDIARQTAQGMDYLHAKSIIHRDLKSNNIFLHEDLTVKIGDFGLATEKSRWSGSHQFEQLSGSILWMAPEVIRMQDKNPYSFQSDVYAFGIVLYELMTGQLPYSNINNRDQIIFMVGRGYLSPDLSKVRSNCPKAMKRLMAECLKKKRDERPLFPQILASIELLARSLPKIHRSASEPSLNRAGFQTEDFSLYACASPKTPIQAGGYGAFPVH

In turn, `COc1n[nH]c2ncc(NC(=O)c3c(Cl)ccc(OCc4ccc(C(F)(F)F)cn4)c3F)cc12` [Example 42, 6-chloro-2-fluoro-N-(3-methoxy-1H-pyrazolo[3,4-b]pyridin-5-yl)-3-((5-(trifluoromethyl)pyridin-2-yl)methoxy)benzamide] came in with an IC50 against V600E full-length B-Raf (setting [1]) of 1.76 nM. The compound further had an IC50 at V600E full-length B-Raf (bound stated) of under 100 nM. In the experiment with LOX xenografts, the “Tumor Volume (mm^3) Day 1” value stood at 191.22 mm^3, the “Tumor Volume (mm^3) Day 3” value worked out at 214.61 mm^3 and the “Tumor Volume (mm^3) Day 5” value was 161.55 mm^3.
As to `COc1n[nH]c2ncc(NC(=O)c3c(Cl)ccc(OCc4ccc(Cl)cc4)c3F)cc12` [Example 30, 6-chloro-3-(4-chlorobenzyloxy)-2-fluoro-N-(3-methoxy-1H-pyrazolo[3,4-b]pyridin-5-yl)benzamide], half-maximal inhibition at V600E full-length B-Raf (setting [1]) (IC50) required 0.74 nM. Besides, the IC50 against V600E full-length B-Raf (bound stated) is under 100 nM. For the same compound, in the experiment on LOX xenografts, the “Tumor Volume (mm^3) Day 1” value is 221.68 mm^3, the “Tumor Volume (mm^3) Day 3” value is 204.49 mm^3 and the “Tumor Volume (mm^3) Day 5” value came out at 168.94 mm^3.
Take `COc1n[nH]c2ncc(NC(=O)c3c(Cl)ccc(OCc4ccc(C(F)(F)F)cc4)c3F)cc12` [Example 19, 6-chloro-2-fluoro-N-(3-methoxy-1H-pyrazolo[3,4-b]pyridin-5-yl)-3-(4-(trifluoromethyl)benzyloxy)benzamide]: the half-inhibitory concentration (IC50) against V600E full-length B-Raf (setting [1]) is 2.04 nM; on V600E full-length B-Raf (bound stated), under 100 nM.
Consider `COc1n[nH]c2ncc(NC(=O)c3cc(OCc4ccccc4)ccc3Cl)cc12` [Example 23, 5-(benzyloxy)-2-chloro-N-(3-methoxy-1H-pyrazolo[3,4-b]pyridin-5-yl)benzamide], for which the IC50 against V600E full-length B-Raf (setting [1]) is 4 nM; against V600E full-length B-Raf (bound stated) it was under 100 nM.
For `COc1n[nH]c2ncc(NC(=O)c3c(Cl)ccc(OCc4ccc(S(C)(=O)=O)cc4)c3F)cc12` [Example 49], the IC50 against V600E full-length B-Raf (setting [1]) is 3.91 nM; on V600E full-length B-Raf (bound stated) it was under 100 nM.
On the same counts, the results for `CC(C)c1n[nH]c2ncc(NC(=O)c3c(Cl)ccc(OCc4ccccc4)c3F)cc12` [Example 10, 3-(benzyloxy)-6-chloro-2-fluoro-N-(3-isopropyl-1H-pyrazolo[3,4-b]pyridin-5-yl)benzamide] are 2.29 nM and under 100 nM.
In the case of `COc1n[nH]c2ncc(NC(=O)c3c(Cl)ccc(OCc4ccc(C)cc4)c3F)cc12` [Example 31, 6-chloro-2-fluoro-N-(3-methoxy-1H-pyrazolo[3,4-b]pyridin-5-yl)-3-(4-methyl-benzyloxy)benzamide], the IC50 at V600E full-length B-Raf (setting [1]) is 0.56 nM; against V600E full-length B-Raf (bound stated) it was under 100 nM.
As to `COc1n[nH]c2ncc(NC(=O)c3c(Cl)ccc(OCc4ccc(C#N)cc4)c3F)cc12` [Example 51, 6-chloro-3-(4-cyanobenzyloxy)-2-fluoro-N-(3-methoxy-1H-pyrazolo[3,4-b]pyridin-5-yl)benzamide], the IC50 on V600E full-length B-Raf (setting [1]) is 2.01 nM; at V600E full-length B-Raf (bound stated), under 100 nM.
For the compound `COc1n[nH]c2ncc(NC(=O)c3c(Cl)ccc(OCc4cnccn4)c3F)cc12` [Example 57, 6-chloro-2-fluoro-N-(3-methoxy-1H-pyrazolo[3,4-b]pyridin-5-yl)-3-(pyrazin-2-ylmethoxy)benzamide], the results for the IC50 against V600E full-length B-Raf (setting [1]) and against V600E full-length B-Raf (bound stated) were 26 nM and under 100 nM, respectively.
Take `COc1n[nH]c2ncc(NC(=O)c3c(Cl)ccc(OCc4ccc(F)cc4)c3F)cc12` [Example 29, 6-chloro-2-fluoro-3-(4-fluorobenzyloxy)-N-(3-methoxy-1H-pyrazolo[3,4-b]pyridin-5-yl)benzamide]: the figures for the IC50 on V600E full-length B-Raf (setting [1]) and against V600E full-length B-Raf (bound stated) were 0.65 nM and under 100 nM, respectively.
On the same counts, the results for `COCCOc1n[nH]c2ncc(NC(=O)c3c(Cl)ccc(OCc4ccccc4)c3F)cc12` [Example 13, 3-(benzyloxy)-6-chloro-2-fluoro-N-(3-(2-methoxyethoxy)-1H-pyrazolo[3,4-b]pyridin-5-yl)benzamide] are 1.91 nM and under 100 nM.
Turning to `COc1n[nH]c2ncc(NC(=O)c3c(F)cc(F)c(OCc4ccccc4)c3F)cc12` [Example 32, 3-(benzyloxy)-2,4,6-trifluoro-N-(3-methoxy-1H-pyrazolo[3,4-b]pyridin-5-yl)benzamide], the IC50 is 34.9 nM against V600E full-length B-Raf (setting [1]) and under 100 nM against V600E full-length B-Raf (bound stated).
Regarding `COc1n[nH]c2ncc(NC(=O)c3cccc(OCc4ccccc4)c3Cl)cc12` [Example 21, 3-(benzyloxy)-2-chloro-N-(3-methoxy-1H-pyrazolo[3,4-b]pyridin-5-yl)benzamide], the results for the IC50 on V600E full-length B-Raf (setting [1]) and against V600E full-length B-Raf (bound stated) were 72.4 nM and under 100 nM, respectively.
Consider `CC(=O)Nc1n[nH]c2ncc(NC(=O)c3c(Cl)ccc(OCc4ccccc4)c3F)cc12` [Example 78, N-(3-acetamido-1H-pyrazolo[3,4-b]pyridin-5-yl)-3-(benzyloxy)-6-chloro-2-fluorobenzamide], for which the IC50 against V600E full-length B-Raf (setting [1]) was 5.19 nM; at V600E full-length B-Raf (bound stated), under 100 nM.
On the same counts, the results for `COc1n[nH]c2ncc(NC(=O)c3cc(OCc4ccccc4)ccc3C)cc12` [Example 27, 5-(benzyloxy)-N-(3-methoxy-1H-pyrazolo[3,4-b]pyridin-5-yl)-2-methylbenzamide] are 2.95 nM and under 100 nM.

By IC50 is commonly meant the point on the concentration scale where inhibition reaches its midpoint.

The values are drawn from patent publication US20120157452A1, “1H-PYRAZOLO[3,4-B] PYRIDINE COMPOUNDS FOR INHIBITING RAF KINASE” (GENENTECH, INC., priority 2009, published 2012).
